Results published in ChEMBL document CHEMBL3779783, “Short cationic lipopeptides as effective antibacterial agents: Design, physicochemical properties and biological evaluation” (Bioorg Med Chem, 2016).
Values after ≈ are worked out from the molar mass of the structure shown. Active and inactive are the calls of the source. No cut-off for these calls is given here. Starred links: 1 amine or outer side, 2 acyl side, 3 side chain; linkers in the order of their positions; H or OH if unused. Positions of bridges follow the written chain, without caps; N, C: chain ends. Non-standard residues stand in square brackets, D forms with d. Residues, ends and D or L forms follow the SMILES beside them. ξ: configuration not given here. ξGly(decyl) = CCCCCCCCCCC(N)C(=O)O; Suc = O=C(CCC(=O)[*:2])[*:1]

Columns and labels:
Staphylococcus aureus [1] = test: Antimicrobial activity against methicillin-susceptible Staphylococcus aureus ATCC 25923 after 20 hrs by microdilution assay; assay type: functional; conditions: ATCC 25923, 20 h
Staphylococcus aureus [2] = test: Antimicrobial activity against glycopeptide-intermediate Staphylococcus aureus NRS17 after 20 hrs by microdilution assay; assay type: functional; conditions: NRS17, 20 h
Enterococcus faecalis [3] = test: Antimicrobial activity against clinical isolates of high level vancomycin-resistant Enterococcus faecalis after 20 hrs by microdilution assay; assay type: functional
Staphylococcus aureus [4] = test: Antimicrobial activity against clinical isolates of methicillin-resistant Staphylococcus aureus after 20 hrs by microdilution assay; assay type: functional
Staphylococcus aureus [5] = test: Antimicrobial activity against vancomycin-resistant Staphylococcus aureus NARSA VRS4 after 20 hrs by microdilution assay; assay type: functional; conditions: NARSA VRS4, 20 h
Escherichia coli [6] = test: Antimicrobial activity against Escherichia coli ATCC 25922 after 20 hrs by microdilution assay; assay type: functional
Staphylococcus aureus [7] = test: Antimicrobial activity against clinical isolates of multi-resistant/methicillin-resistant Staphylococcus aureus after 20 hrs by microdilution assay; assay type: functional
Staphylococcus aureus [8] = test: Antimicrobial activity against glycopeptide-intermediate Staphylococcus aureus NRS1 after 20 hrs by microdilution assay; assay type: functional; conditions: NRS1, 20 h
[9] = Cytotoxicity against human HepG2 cells after 24 hrs by MTT assay; assay type: cell-based
Enterococcus faecium [10] = test: Antimicrobial activity against multidrug resistant and high level vancomycin resistant Enterococcus faecium ATCC 51559 after 20 hrs by microdilution assay; assay type: functional; conditions: ATCC 51559, 20 h
Pseudomonas aeruginosa [11] = test: Antimicrobial activity against Pseudomonas aeruginosa ATCC 27853 after 20 hrs by microdilution assay; assay type: functional
Staphylococcus aureus [12] = test: Antimicrobial activity against methicillin-resistant Staphylococcus aureus ATCC 43300 after 20 hrs by microdilution assay; assay type: functional; conditions: ATCC 43300, 20 h
Klebsiella pneumoniae [13] = test: Antimicrobial activity against multidrug resistant Klebsiella pneumoniae ATCC 700603 after 20 hrs by microdilution assay; assay type: functional
Klebsiella pneumoniae [14] = test: Antimicrobial activity against NDM-1 positive Klebsiella pneumoniae BAA-2146 after 20 hrs by microdilution assay; assay type: functional
Streptococcus pneumoniae [15] = test: Antimicrobial activity against multidrug resistant Streptococcus pneumoniae ATCC 700677 after 20 hrs by microdilution assay; assay type: functional; conditions: ATCC 700677, 20 h
Klebsiella pneumoniae [16] = test: Antimicrobial activity against Klebsiella pneumoniae ATCC 13883 after 20 hrs by microdilution assay; assay type: functional
[17] = Cytotoxicity against HEK293 cells after 24 hrs by MTT assay; assay type: cell-based; conditions: human
Staphylococcus aureus [18] = test: Antimicrobial activity against vancomycin-resistant Staphylococcus aureus NARSA VRS10 after 20 hrs by microdilution assay; assay type: functional; conditions: NARSA VRS10, 20 h
Staphylococcus aureus [19] = test: Antimicrobial activity against vancomycin-resistant Staphylococcus aureus NARSA VRS1 after 20 hrs by microdilution assay; assay type: functional; conditions: NARSA VRS1, 20 h
Acinetobacter baumannii [20] = test: Antimicrobial activity against Acinetobacter baumannii […] after 20 hrs by microdilution assay; assay type: functional
Staphylococcus aureus [21] = test: Antimicrobial activity against glycopeptide-intermediate Staphylococcus aureus NRS1 after 24 hrs by M7-A7 method; assay type: functional; conditions: NRS1, 24 h
Staphylococcus aureus [22] = test: Antimicrobial activity against clinical isolates of methicillin-resistant Staphylococcus aureus after 24 hrs by M7-A7 method; assay type: functional
Pseudomonas aeruginosa [23] = test: Antimicrobial activity against Pseudomonas aeruginosa ATCC 27853 after 24 hrs by M7-A7 method; assay type: functional; conditions: ATCC 27853, 24 h
Staphylococcus aureus [24] = test: Antimicrobial activity against vancomycin-resistant Staphylococcus aureus NARSA VRS10 after 24 hrs by M7-A7 method; assay type: functional; conditions: NARSA VRS10, 24 h
Streptococcus pneumoniae [25] = test: Antimicrobial activity against multidrug resistant Streptococcus pneumoniae ATCC 700677 after 24 hrs by M7-A7 method; assay type: functional; conditions: ATCC 700677, 24 h
Klebsiella pneumoniae [26] = test: Antimicrobial activity against Klebsiella pneumoniae ATCC 13883 after 24 hrs by M7-A7 method; assay type: functional; conditions: ATCC 13883, 24 h
Acinetobacter baumannii [27] = test: Antimicrobial activity against Acinetobacter baumannii […] after 24 hrs by M7-A7 method; assay type: functional
Klebsiella pneumoniae [28] = test: Antimicrobial activity against multidrug resistant Klebsiella pneumoniae ATCC 700603 after 24 hrs by M7-A7 method; assay type: functional; conditions: Klebsiella pneumoniae, 700603, 24 h
Staphylococcus aureus [29] = test: Antimicrobial activity against glycopeptide-intermediate Staphylococcus aureus NRS17 after 24 hrs by M7-A7 method; assay type: functional; conditions: NRS17, 24 h
Staphylococcus aureus [30] = test: Antimicrobial activity against vancomycin-resistant Staphylococcus aureus NARSA VRS4 after 24 hrs by M7-A7 method; assay type: functional; conditions: NARSA VRS4, 24 h
Staphylococcus aureus [31] = test: Antimicrobial activity against clinical isolates of multi-resistant/methicillin-resistant Staphylococcus aureus after 24 hrs by M7-A7 method; assay type: functional
Staphylococcus aureus [32] = test: Antimicrobial activity against methicillin-susceptible Staphylococcus aureus ATCC 25923 assessed as membrane burst at 16 times MIC after 3 hrs by transmission electron microscopic analysis; assay type: functional, organism-based
Escherichia coli [33] = test: Antimicrobial activity against Escherichia coli ATCC 25922 after 24 hrs by M7-A7 method; assay type: functional; conditions: ATCC 25922, 24 h
Staphylococcus aureus [34] = test: Antimicrobial activity against vancomycin-resistant Staphylococcus aureus NARSA VRS1 after 24 hrs by M7-A7 method; assay type: functional; conditions: NARSA VRS1, 24 h
Enterococcus faecium [35] = test: Antimicrobial activity against multidrug resistant and high level vancomycin resistant Enterococcus faecium ATCC 51559 after 24 hrs by M7-A7 method; assay type: functional; conditions: ATCC 51559, 24 h
Staphylococcus aureus [36] = test: Antimicrobial activity against methicillin-resistant Staphylococcus aureus ATCC 43300 after 24 hrs by M7-A7 method; assay type: functional; conditions: ATCC 43300, 24 h
[37] = Metabolic stability in 0.1 M NH4HCO3 buffer at pH 8.16 assessed as trypsin (unknown origin)-mediated compound degradation after 2 to 12 hrs by RP-HPLC method; assay type: ADME; conditions: human
Enterococcus faecalis [38] = test: Antimicrobial activity against clinical isolates of high level vancomycin-resistant Enterococcus faecalis after 24 hrs by M7-A7 method; assay type: functional
Klebsiella pneumoniae [39] = test: Antimicrobial activity against NDM-1 positive Klebsiella pneumoniae BAA-2146 after 24 hrs by M7-A7 method; assay type: functional; conditions: ATCC BAA-2146, 24 h
Staphylococcus aureus [40] = test: Antimicrobial activity against methicillin-susceptible Staphylococcus aureus ATCC 25923 after 24 hrs by M7-A7 method; assay type: functional; conditions: ATCC 25923, 24 h

Row | Molecule | MIC (Acinetobacter baumannii [20]) [µM] | MIC (Staphylococcus aureus [21]) [µM] | MIC (Staphylococcus aureus [22]) [µM] | MIC (Pseudomonas aeruginosa [23]) [µM] | MIC (Staphylococcus aureus [24]) [µM] | MIC (Streptococcus pneumoniae [25]) [µM] | MIC (Klebsiella pneumoniae [26]) [µM] | MIC (Acinetobacter baumannii [27]) [µM] | MIC (Klebsiella pneumoniae [28]) [µM] | MIC (Staphylococcus aureus [29]) [µM] | MIC (Staphylococcus aureus [30]) [µM] | MIC (Staphylococcus aureus [31]) [µM] | MIC (Escherichia coli [33]) [µM] | MIC (Staphylococcus aureus [34]) [µM] | MIC (Enterococcus faecium [35]) [µM] | MIC (Staphylococcus aureus [36]) [µM] | MIC (Enterococcus faecalis [38]) [µM] | MIC (Klebsiella pneumoniae [39]) [µM] | other results
1 | CCCCCCCCCCC(NC(=O)C(CCCCN)NC(C)=O)C(N)=O (stereo not drawn) | > 30 |  |  |  |  |  |  |  |  |  |  |  |  |  |  |  |  |  | MIC (Staphylococcus aureus [1]): > 30 µM; MIC (Staphylococcus aureus [2]): > 30 µM; MIC (Enterococcus faecalis [3]): 30 µM (≈ 11.5 µg/mL); MIC (Staphylococcus aureus [4]): > 30 µM; MIC (Staphylococcus aureus [5]): > 30 µM; MIC (Escherichia coli [6]; ATCC 25922, 20 h): > 30 µM; MIC (Staphylococcus aureus [7]): > 30 µM; MIC (Staphylococcus aureus [8]): > 30 µM; CC50 at 24 h [9]: > 15 µM; MIC (Enterococcus faecium [10]): > 30 µM; MIC (Pseudomonas aeruginosa [11]; ATCC 27853, 20 h): > 30 µM; MIC (Staphylococcus aureus [12]): > 30 µM; MIC (Klebsiella pneumoniae [13]; Klebsiella pneumoniae, 700603, 20 h): > 30 µM; MIC (Klebsiella pneumoniae [14]; ATCC BAA-2146, 20 h): > 30 µM; MIC (Streptococcus pneumoniae [15]): > 30 µM; MIC (Klebsiella pneumoniae [16]; ATCC 13883, 20 h): > 30 µM; CC50 at 24 h [17]: > 15 µM; MIC (Staphylococcus aureus [18]): > 30 µM; MIC (Staphylococcus aureus [19]): > 30 µM
2 | CCCCCCCCCCC(NC(=O)C(CCCCCCCCCC)NC(=O)C(CCCCN)NC(=O)C(CCCCN)NC(C)=O)C(=O)NC(CCCCNC(C)=O)C(=O)NCC(N)=O (stereo not drawn) (Ac-KK[ξGly(decyl)][ξGly(decyl)]K(Ac)G-NH2; configuration not given here) |  | 1.9 (≈ 1.78 µg/mL) | 11.3 (≈ 10.6 µg/mL) | 7.5 (≈ 7.03 µg/mL) | 2.8 (≈ 2.62 µg/mL) | 3.8 (≈ 3.56 µg/mL) | 15 (≈ 14.1 µg/mL) | 7.5 (≈ 7.03 µg/mL) | > 15 | 2.8 (≈ 2.62 µg/mL) | 2.8 (≈ 2.62 µg/mL) | 3.8 (≈ 3.56 µg/mL) | 15 (≈ 14.1 µg/mL) | 1.9 (≈ 1.78 µg/mL) | 2.8 (≈ 2.62 µg/mL) | 1.9 (≈ 1.78 µg/mL) | 1.9 (≈ 1.78 µg/mL) | > 15 | Activity (Staphylococcus aureus [32]): Active; Stability [37]: Stable
3 | COLISTIN | 0.04 |  |  |  |  |  |  |  |  |  |  |  |  |  |  |  |  |  | MIC (Escherichia coli [6]): 0.02 µM; MIC (Pseudomonas aeruginosa [11]): 0.09 µM; MIC (Klebsiella pneumoniae [13]): 0.04 µM; MIC (Klebsiella pneumoniae [14]; ATCC BAA-2146): 0.04 µM; MIC (Klebsiella pneumoniae [16]): 0.04 µM
4 | CCCCCCCCCCC1NC(=O)C(CCCCCCCCCC)NC(=O)C(CCCCN)NC(=O)C(CCCCN)NC(=O)CCC(=O)NCCCCC(C(=O)NCC(N)=O)NC1=O (stereo not drawn) (KK[ξGly(decyl)][ξGly(decyl)]KG-NH2; linker N-5 via Suc; configuration not given here) |  | 1.2 (≈ 1.12 µg/mL) | 1.4 (≈ 1.31 µg/mL) | 30 (≈ 28.1 µg/mL) | 0.9 (≈ 0.842 µg/mL) | 0.9 (≈ 0.842 µg/mL) | > 30 | 15 (≈ 14 µg/mL) | > 30 | 0.9 (≈ 0.842 µg/mL) | 0.5 (≈ 0.468 µg/mL) | 1.9 (≈ 1.78 µg/mL) | ≥ 30 | 0.7 (≈ 0.655 µg/mL) | 0.3 (≈ 0.281 µg/mL) | 0.5 (≈ 0.468 µg/mL) | 0.2 (≈ 0.187 µg/mL) | > 30 | MIC (Staphylococcus aureus [40]): 0.5 µM (≈ 0.468 µg/mL)
